Test results published in patent US8906909B2 (Curis, Inc., priority 2009, dated 2014).

What was measured:
[1] = system: SKBr3 cells; experiment: Cell proliferation assay Method B, SKBr3; type: cell-based; conditions: Homo sapiens, SK-BR-3, Breast, 72 hours, read-out: antiproliferative activity IC50, SKBr3
Experimental: (§1) Cancer cell lines were plated at 5,000 to 10,000 per well in 96-well flat bottomed plates with various concentration of compounds. The cells were incubated with compounds for 72 hours in the presence of 0.5% of fetal bovine serum. Growth inhibition was accessed by adenosine triphosphate (ATP) content assay using Promega CellTiter-Glo kit. Promega CellTiter-Glo kit is an ATP monitoring system based on firefly luciferase. Briefly, 16 μl of mammalian cell lysis and substrate solution was added to 84 μl of culture medium per well to lyse the cells and stabilize the ATP. The mixture was shaken and incubated for 30 minutes and subsequently the luminescence was measured.

[2] = system: THP-1 cells; experiment: Cell proliferation assay Method B, THP-1; type: cell-based; conditions: Homo sapiens, AML, 72 hours, read-out: antiproliferative activity IC50, THP-1
Experimental: as §1

[3] = system: MDA-MB-453 cells; experiment: Cell proliferation assay Method B, MDA-MB-453; type: cell-based; conditions: Homo sapiens, Breast, 72 hours, read-out: antiproliferative activity IC50, MDA-MB-453
Experimental: as §1

[4] = system: MDA-MB-468 cells; experiment: Cell proliferation assay Method B, MDA-MB-468; type: cell-based; conditions: Homo sapiens, Breast, Method B, 72 hours, read-out: antiproliferative activity IC50, MDA-MB-468
Experimental: as §1

[5] = system: HDACs (HeLa cell nuclear extracts); experiment: HDAC enzymatic activity, Biomol Color de Lys system; type: biochemical
In short: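 HeLa nuclear extract as HDAC source with Color de Lys substrate in 50 mM Tris/Cl pH 8.0, 137 mM NaCl, 2.7 mM KCl, 1 mM MgCl2. Serially diluted compounds reacted 1 h at 25 °C, then developer added; fluorescence (Ex 350–380/Em 440–460) fitted sigmoidally for IC50.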

[6] = system: K562 cells; experiment: Cell proliferation assay Method B, K562; type: cell-based; conditions: Homo sapiens, CML, 72 hours, read-out: antiproliferative activity IC50, K562
Experimental: as §1

[7] = system: Pfeiffer cells; experiment: Cell proliferation assay Method B, Pfeiffer; type: cell-based; conditions: Homo sapiens, NHL, 72 hours, read-out: antiproliferative activity IC50, Pfeiffer
Experimental: as §1

[8] = system: BT474 cells; experiment: Cell proliferation assay Method B, BT474; type: cell-based; conditions: Homo sapiens, BT-474; Breast; Method B; 72 hours; read-out: antiproliferative activity IC50, BT474
Experimental: as §1

[9] = system: HCC1500 cells; experiment: Cell proliferation assay Method B, HCC1500; type: cell-based; conditions: Breast, 72 hours, read-out: antiproliferative activity IC50, HCC1500
Experimental: as §1

[10] = system: UACC-893 cells; experiment: Cell proliferation assay Method B, UACC-893; type: cell-based; conditions: Homo sapiens, Breast, 72 hours, read-out: antiproliferative activity IC50, UACC-893
Experimental: as §1

[11] = system: Raji cells; experiment: Cell proliferation assay Method B, Raji; type: cell-based; conditions: Homo sapiens, NHL, 72 hours, read-out: antiproliferative activity IC50, Raji
Experimental: as §1

[12] = system: MDA-MB-361 cells; experiment: Cell proliferation assay Method B, MDA-MB-361; type: cell-based; conditions: Homo sapiens, Breast, 72 hours, read-out: antiproliferative activity IC50, MDA-MB-361
Experimental: as §1

[13] = system: Daudi cells; experiment: Cell proliferation assay Method B, Daudi; type: cell-based; conditions: Homo sapiens, NHL, 72 hours, read-out: antiproliferative activity IC50, Daudi
Experimental: as §1

[14] = system: MV-4-11 cells; experiment: Cell proliferation assay Method B, MV-4-11; type: cell-based; conditions: Homo sapiens, MV4-11, AML, 72 hours, read-out: antiproliferative activity IC50, MV-4-11
Experimental: as §1

[15] = system: L1210 cells; experiment: Cell proliferation assay Method B, L1210; type: cell-based; conditions: Mouse LL, 72 hours, read-out: antiproliferative activity IC50, L1210
Experimental: as §1

[16] = system: U937 cells; experiment: Cell proliferation assay Method B, U937; type: cell-based; conditions: Homo sapiens, U-937, AML, 72 hours, read-out: antiproliferative activity IC50, U937
Experimental: as §1

[17] = system: HCC1806 cells; experiment: Cell proliferation assay Method B, HCC1806; type: cell-based; conditions: Homo sapiens, Breast, 72 hours, read-out: antiproliferative activity IC50, HCC1806
Experimental: as §1

[18] = system: MEG-01 cells; experiment: Cell proliferation assay Method B, MEG-01; type: cell-based; conditions: Homo sapiens, CML, 72 hours, read-out: antiproliferative activity IC50, MEG-01
Experimental: as §1

[19] = system: RPMI-8226 cells; experiment: Cell proliferation assay Method B, RPMI-8226; type: cell-based; conditions: Homo sapiens, Multiple Myeloma, Method B, 72 hours, read-out: antiproliferative activity IC50, RPMI-8226
Experimental: as §1

[20] = system: T47D cells; experiment: Cell proliferation assay Method B, T47D; type: cell-based; conditions: Homo sapiens, Breast, 72 hours, read-out: antiproliferative activity IC50, T47D
Experimental: as §1

[21] = system: MCF-7 cells; experiment: Cell proliferation assay Method B, MCF-7; type: cell-based; conditions: Homo sapiens, MCF7, Breast, 72 hours, read-out: antiproliferative activity IC50, MCF-7
Experimental: as §1

[22] = system: SUP-B15 cells; experiment: Cell proliferation assay Method B, SUP-B15; type: cell-based; conditions: Homo sapiens, ALL, 72 hours, read-out: antiproliferative activity IC50, SUP-B15
Experimental: as §1

[23] = system: MDA-MB-231 cells; experiment: Cell proliferation assay Method B, MDA-MB-231; type: cell-based; conditions: Homo sapiens, Breast, Method B, 72 hours, read-out: antiproliferative activity IC50, MDA-MB-231 (second listing, r32)
Experimental: as §1

[24] = system: ZR-75-1 cells; experiment: Cell proliferation assay Method B, ZR-75-1; type: cell-based; conditions: Homo sapiens, Breast, 72 hours, read-out: antiproliferative activity IC50, ZR-75-1
Experimental: as §1

[25] = system: MOLT-4 cells; experiment: Cell proliferation assay Method B, MOLT-4; type: cell-based; conditions: Homo sapiens, ALL, 72 hours, read-out: antiproliferative activity IC50, MOLT-4
Experimental: as §1

[26] = system: HL-60 cells; experiment: Cell proliferation assay Method B, HL-60; type: cell-based; conditions: Homo sapiens, AML, 72 hours, read-out: antiproliferative activity IC50, HL-60
Experimental: as §1

[27] = system: ARH77 cells; experiment: Cell proliferation assay Method B, ARH77; type: cell-based; conditions: Homo sapiens, ARH-77, Multiple Myeloma, 72 hours, read-out: antiproliferative activity IC50, ARH77
Experimental: as §1

[28] = system: P388 D1 cells; experiment: Cell proliferation assay Method B, P388 D1; type: cell-based; conditions: P388D1, Mouse Lymphoma, 72 hours, read-out: antiproliferative activity IC50, P388 D1
Experimental: as §1

[29] = biological target: T1, PI3Kα (p110α/p85α) (Homo sapiens, UniProt P42336); experiment: PI3Kα fluorescence polarization assay; type: biochemical; conditions: 10 μM ATP
T1 construct: N-terminal histidine-tagged recombinant full-length human p110α; His tag (N); made in house; host or cells: Baculovirus-infected Sf9 insect cells
Experimental: (a) An In Vitro Assay which Determines the Ability of a Test Compound to Inhibit PI3Kα.
Activity of PI3Kα was measured using fluorescence polarization assay. PI3Kα, a complex of N-terminal histidine-tagged recombinant full-length human p110α and untagged recombinant full length human p85α were coexpressed in a Baculovirus infected Sf9 cell expression system. (GenBank Accession No. for p110α, U79143; for p85α, XM—043865). The proteins are purified by one-step affinity chromatography using glutathione-agarose. A competition assay was performed to measure the amount of PIP3 generated from PIP2 in the presence of purified recombinant PI3Kα (p110α/p85α). PI3K a was incubated with 10 μM PIP2 substrate in the reaction buffer (20 mM HEPES, pH 7.5, 10 mM NaCl, 4 mM MgCl2, 2 mM DTT, 10 μM ATP and 1% DMSO) for 1 hour at 30° C. The reaction product was then mixed with a PIP3 detector protein and the fluorescent PIP3 probe. Polarization (mP) values decrease as fluorescent probe binding to the PIP3 detector is displaced by PIP3 produced by enzymatic activity and the amount of unbound fluorescent probe in the mixture increases. Polarization degrees (mP) value was determined using microplate reader with background subtraction.

T1 sequence (P42336 whole entry): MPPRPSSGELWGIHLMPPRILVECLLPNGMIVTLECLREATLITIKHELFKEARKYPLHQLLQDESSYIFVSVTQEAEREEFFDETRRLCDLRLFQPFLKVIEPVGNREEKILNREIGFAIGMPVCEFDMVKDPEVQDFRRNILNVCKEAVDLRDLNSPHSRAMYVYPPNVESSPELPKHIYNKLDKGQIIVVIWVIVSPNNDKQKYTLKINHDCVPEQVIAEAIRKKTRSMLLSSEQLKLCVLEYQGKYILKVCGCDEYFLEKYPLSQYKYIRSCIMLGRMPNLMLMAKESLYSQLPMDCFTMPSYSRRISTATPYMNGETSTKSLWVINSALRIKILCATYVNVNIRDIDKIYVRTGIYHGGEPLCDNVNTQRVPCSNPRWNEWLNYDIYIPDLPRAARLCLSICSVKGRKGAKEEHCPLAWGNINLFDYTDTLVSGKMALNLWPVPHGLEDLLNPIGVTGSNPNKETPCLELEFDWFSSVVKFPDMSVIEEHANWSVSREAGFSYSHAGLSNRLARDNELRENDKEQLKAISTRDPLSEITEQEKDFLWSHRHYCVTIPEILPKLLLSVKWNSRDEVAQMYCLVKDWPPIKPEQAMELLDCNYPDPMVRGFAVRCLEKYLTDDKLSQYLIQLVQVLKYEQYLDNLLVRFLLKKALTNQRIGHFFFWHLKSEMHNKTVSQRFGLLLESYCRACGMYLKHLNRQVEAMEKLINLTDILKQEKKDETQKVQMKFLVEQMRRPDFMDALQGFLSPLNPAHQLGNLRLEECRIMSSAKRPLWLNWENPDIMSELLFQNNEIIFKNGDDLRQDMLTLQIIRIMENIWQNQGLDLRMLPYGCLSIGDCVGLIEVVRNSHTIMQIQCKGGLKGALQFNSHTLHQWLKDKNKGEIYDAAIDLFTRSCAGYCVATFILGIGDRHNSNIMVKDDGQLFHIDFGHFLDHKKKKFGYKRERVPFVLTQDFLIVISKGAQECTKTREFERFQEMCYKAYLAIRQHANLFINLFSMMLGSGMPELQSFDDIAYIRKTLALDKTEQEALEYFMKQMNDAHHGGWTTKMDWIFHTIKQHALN
T1 sequence (P27986 whole entry partner): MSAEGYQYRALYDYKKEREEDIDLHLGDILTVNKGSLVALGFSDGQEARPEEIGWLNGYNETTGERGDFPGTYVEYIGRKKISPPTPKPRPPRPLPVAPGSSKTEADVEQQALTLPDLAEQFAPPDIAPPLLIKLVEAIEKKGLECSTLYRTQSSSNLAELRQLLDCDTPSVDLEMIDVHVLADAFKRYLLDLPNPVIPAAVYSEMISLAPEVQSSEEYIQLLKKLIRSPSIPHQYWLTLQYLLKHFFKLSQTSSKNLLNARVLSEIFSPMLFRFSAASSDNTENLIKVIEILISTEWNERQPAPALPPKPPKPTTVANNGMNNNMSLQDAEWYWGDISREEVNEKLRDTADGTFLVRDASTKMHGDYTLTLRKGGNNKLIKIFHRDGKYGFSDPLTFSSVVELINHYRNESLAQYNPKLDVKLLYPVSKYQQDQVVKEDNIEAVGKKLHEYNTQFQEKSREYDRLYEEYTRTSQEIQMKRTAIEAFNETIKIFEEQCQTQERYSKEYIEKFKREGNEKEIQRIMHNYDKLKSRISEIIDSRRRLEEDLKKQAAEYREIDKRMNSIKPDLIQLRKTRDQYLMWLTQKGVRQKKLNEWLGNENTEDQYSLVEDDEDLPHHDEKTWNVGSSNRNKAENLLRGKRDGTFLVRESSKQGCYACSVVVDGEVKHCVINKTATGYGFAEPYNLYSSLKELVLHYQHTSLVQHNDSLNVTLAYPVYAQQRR

Structure (SMILES)	IC50 [1] [nM]	IC50 [5] [nM]	IC50 [8] [nM]	IC50 [12] [nM]	IC50 [17] [nM]	IC50 [20] [nM]	IC50 [21] [nM]	melting point [°C]	IC50 [2] [nM]	IC50 [3] [nM]	IC50 [6] [nM]	IC50 [7] [nM]	IC50 [9] [nM]	IC50 [11] [nM]	IC50 [13] [nM]	IC50 [14] [nM]	IC50 [15] [nM]	IC50 [16] [nM]	IC50 [19] [nM]	IC50 [24] [nM]	further results
COc1ccc(-c2nc(N3CCOCC3)c3sc(CN(C)c4ncc(C(=O)NO)cn4)cc3n2)cn1 [Compound 236, N-Hydroxy-2-(((2-(6-methoxypyridin-3-yl)-4-morpholinothieno[3,2-d]pyrimidin-6-yl)methyl)(methyl)amino)pyrimidine-5-carboxamide]	10 to 100	< 100	< 10	< 10	10 to 100	10 to 100	< 10	–	10 to 100	< 10	100 to 1000	< 10	< 10	10 to 100	10 to 100	< 10	10 to 100	< 10	< 10	10 to 100	IC50 [4]: 10 to 100 nM; IC50 [10]: 10 to 100 nM; IC50 [18]: 10 to 100 nM; IC50 [22]: < 10 nM; IC50 [23]: 10 to 100 nM; IC50 [25]: < 10 nM; IC50 [26]: < 10 nM; IC50 [27]: 10 to 100 nM; IC50 [28]: 10 to 100 nM
CS(=O)(=O)N1CCN(Cc2cc3nc(-c4cccc5c4cnn5CCCCC(=O)NO)nc(N4CCOCC4)c3s2)CC1 [Compound 3, N-hydroxy-5-(4-(6-((4-(methylsulfonyl)piperazin-1-yl)methyl)-4-morpholinothieno[3,2-d]pyrimidin-2-yl)-1H-indazol-1-yl)pentanamide]	–	< 100	–	–	–	–	–	139 to 143	–	–	–	–	–	–	–	–	–	–	–	–	IC50 [29]: > 10000 nM

More lines, main results first:

IC50 [1] [nM]	IC50 [5] [nM]	IC50 [8] [nM]	IC50 [12] [nM]	IC50 [17] [nM]	IC50 [20] [nM]	IC50 [21] [nM]	melting point [°C]	Structure (SMILES)	IC50 [2] [nM]	IC50 [3] [nM]	IC50 [6] [nM]	IC50 [7] [nM]	IC50 [9] [nM]	IC50 [11] [nM]	IC50 [13] [nM]	IC50 [14] [nM]	IC50 [15] [nM]	IC50 [16] [nM]	IC50 [19] [nM]	IC50 [24] [nM]	further results
10 to 100	< 100	< 10	< 10	10 to 100	< 10	< 10	–	CNc1ccc(-c2nc(N3CCOCC3)c3sc(CN(C)c4ncc(C(=O)NO)cn4)cc3n2)cn1 [Compound 111, N-Hydroxy-2-(methyl((2-(6-(methylamino)pyridin-3-yl)-4-morpholinothieno[3,2-d]pyrimidin-6-yl)methyl)amino)pyrimidine-5-carboxamide]	10 to 100	< 10	10 to 100	< 10	–	10 to 100	< 10	< 10	< 10	< 10	< 10	10 to 100	IC50 [25]: < 10 nM; IC50 [26]: < 10 nM; IC50 [27]: < 10 nM; IC50 [28]: < 10 nM
10 to 100	< 100	< 10	< 10	< 10	< 10	< 10	215 to 220	COc1ncc(-c2nc(N3CCOCC3)c3sc(CN(C)c4ncc(C(=O)NO)cn4)cc3n2)cn1 [Compound 261, N-Hydroxy-2-(((2-(2-methoxypyrimidin-5-yl)-4-morpholinothieno[3,2-d]pyrimidin-6-yl)methyl)(methyl)amino)pyrimidine-5-carboxamide]	–	–	–	–	< 10	–	–	–	–	–	–	< 10	–
–	< 100	–	–	–	–	–	186 to 187	CS(=O)(=O)N1CCN(Cc2cc3nc(-c4cccc5c4cnn5CCCCCC(=O)NO)nc(N4CCOCC4)c3s2)CC1 [Compound 4]	–	–	–	–	–	–	–	–	–	–	–	–	IC50 [29]: > 10000 nM
